For one series, the system named is CYPs. In words: CYPs metabolic stability assay in HLM (human liver microsomes). It is filed as in vitro ADME. As to conditions: HLM 1 mg/ml protein, compound 5 μM, 60 min, 37° C.; for Control (% remain): absence of NADPH; for CYP+ (% remain): with NADPH 1 mM. The procedure, abridged:
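Test compound at 5 μM incubated 60 min at 37 °C with HLM (1 mg/ml protein) in 50 mM K-phosphate buffer, 5 mM MgCl2, with and without 1 mM NADPH, after 5 min pre-incubation. Reaction stopped with acetonitrile, added before compound at T0; remaining compound measured by HPLC-MS, duplicates.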
Background: Liver microsomes are a subcellular fraction often used to study metabolism.

A short description of series [1]: Solubility assay in purified water. The format is physicochemical. As to conditions: pH 5.7, thermodynamic from solid; purified water pH=5.6-5.8, stirring 2 h, room temperature, HPLC. The procedure: A saturated solution was prepared by adding the test compound in excess to 1 mL of purified water (pH=5.6-5.8) followed by stirring of the mixture for 2 h at room temperature. Thereupon, the un-dissolved material was removed by filtration and the amount of test compound in the filtrate was quantified by HPLC using a calibration curve.

For series [2], the target named is T1, FAAH (Mus musculus, UniProt O08914).
T1 sequence (O08914 1-579): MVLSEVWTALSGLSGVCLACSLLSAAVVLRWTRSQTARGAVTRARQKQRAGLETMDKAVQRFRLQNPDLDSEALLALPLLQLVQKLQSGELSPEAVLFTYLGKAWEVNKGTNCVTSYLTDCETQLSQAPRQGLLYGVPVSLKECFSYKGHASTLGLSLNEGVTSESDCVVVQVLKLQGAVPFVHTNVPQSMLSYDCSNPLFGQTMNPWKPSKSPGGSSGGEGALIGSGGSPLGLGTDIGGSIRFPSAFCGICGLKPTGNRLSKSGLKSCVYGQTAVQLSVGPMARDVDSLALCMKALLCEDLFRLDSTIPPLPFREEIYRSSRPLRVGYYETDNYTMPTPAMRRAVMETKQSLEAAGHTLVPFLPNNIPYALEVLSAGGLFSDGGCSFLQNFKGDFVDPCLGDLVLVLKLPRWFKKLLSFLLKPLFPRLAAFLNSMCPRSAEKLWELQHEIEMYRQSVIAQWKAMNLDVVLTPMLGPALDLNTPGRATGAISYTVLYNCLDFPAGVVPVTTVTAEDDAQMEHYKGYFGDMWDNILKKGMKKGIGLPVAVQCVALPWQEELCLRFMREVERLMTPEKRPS
In words: In vitro/ex vivo FAAH activity determination in brain after intra-tracheal instillation. Set-up: Liver and brain fragments were removed and processed for enzymatic activity determination; from tissue; species or system male NMRI mice. As to conditions: remaining enzymatic activity vs controls, 1 mg/kg intra-tracheal instillation, sacrificed after 8 h. In a few lines: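 Male NMRI mice dosed 1 mg/kg by intra-tracheal instillation under anaesthesia; brain and liver taken at 8 h. Homogenates (15 μg brain, 5 μg liver protein) pre-incubated 15 min at 37 °C, then 12 min with 2 μM [3H]-AEA, pH 7.6; 3H-ethanolamine counted, activity as % of controls.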

Series [3] deals with T1, FAAH. In words: In vitro/ex vivo FAAH activity determination in liver after intra-tracheal instillation. Set-up: Liver and brain fragments were removed and processed for enzymatic activity determination; from tissue; host or cells: mouse liver fragment homogenate; species or system male NMRI mice. As to conditions: remaining enzymatic activity vs controls, 1 mg/kg intra-tracheal instillation, sacrificed after 8 h.

Where a name gives a salt, the structure may show the parent alone. A value given as a limit tells only on which side of the number the result lay.

Regarding `COc1cccc(CN2CCC(N(C)C(=O)n3cnc(-c4cccc(NC(N)=O)c4)c3)CC2)c1.Cl` [Example 17, N-(1-(3-methoxybenzyl)piperidin-4-yl)-N-methyl-4-(3-ureidophenyl)-1 H-imidazole-1-carboxamide hydrochloride], in the series on CYPs, the “Control (% remain)” value was found to be 103.4 % remain and the “CYP+ (% remain)” value is reported as 21.4 % remain. This compound displayed a solubility at 2 h in series [1] of 14.1 mg/mL. Also, at FAAH [2], the “FAAH Activity - Brain itc (% C)” value is 91.9 % C. Also, the “FAAH Activity - Liver itc (% C)” value on FAAH [3] is 4.2 % C.

With `COc1ccc(CN2CCC(N(C)C(=O)n3cnc(-c4cccc(C(N)=O)c4)c3)CC2)cc1` [Example 33, 4-(3-carbamoylphenyl)-N-(1-(4-methoxybenzyl)piperidin-4-yl)-N-methyl-1H-imidazole-1-carboxamide hydrochloride], in the series on CYPs, the “Control (% remain)” value is 112.2 % remain and the “CYP+ (% remain)” value came out at 70.4 % remain. This compound also came in with a solubility at 2 h in series [1] greater than 14.9 mg/mL. For the same compound, the “FAAH Activity - Brain itc (% C)” value at FAAH [2] worked out at 102 % C. Further, on FAAH [3], the “FAAH Activity - Liver itc (% C)” value was 3.4 % C.

`COc1ccccc1N1CCC(N(C)C(=O)n2cnc(-c3cccc(C(N)=O)c3)c2)CC1` [Example 34, 4-(3-carbamoylphenyl)-N-(1-(2-methoxyphenyl)piperidin-4-yl)-N-methyl-1 H-imidazole-1-carboxamide hydrochloride]: in the series with CYPs, the “Control (% remain)” value came out at 105.4 % remain and the “CYP+ (% remain)” value amounted to 9.1 % remain. This compound displayed a solubility at 2 h in series [1] greater than 14.7 mg/mL. The “FAAH Activity - Brain itc (% C)” value on FAAH [2] was found to be 78.7 % C. Also, the “FAAH Activity - Liver itc (% C)” value on FAAH [3] is listed as 3.3 % C.

For `CN(C(=O)n1cnc(-c2cccc(C(N)=O)c2)c1)C1CCN(c2ccc(O)cc2)CC1` [Example 35, 4-(3-carbamoylphenyl)-N-(1-(4-hydroxyphenyl)piperidin-4-yl)-N-methyl-1H-imidazole-1-carboxamide hydrochloride], in the series with CYPs, the “Control (% remain)” value is 73.8 % remain and the “CYP+ (% remain)” value came to 81.0 % remain. This compound also gave a solubility at 2 h in series [1] of 10.2 mg/mL. In addition, at FAAH [2], the “FAAH Activity - Brain itc (% C)” value was 96.6 % C. On FAAH [3], the “FAAH Activity - Liver itc (% C)” value came to 4.3 % C.

Usually solubility stands for the dissolved amount per volume that the medium holds. High values mean a readily soluble substance, low ones a poorly soluble substance.

The record behind these values is patent US20160166560A1, “Urea Compounds and Their Use as FAAH Enzyme Inhibitors” (BIAL-PORTELA & Cª, S.A., priority 2013, published 2016).
